Laboratory results: patent US10494380B2, “Nitrogen-containing tricyclic derivatives having HIV replication inhibitory activity” (priority 2015, dated 2019)
pEC50: −log10 of the molar value.

system: T125A mutant virus (HIV-1 NL-432 recombinant molecular clone, IN gene); test: HIV replication inhibition assay against integrase 124/125 mutant virus (Test Example 2); format: cell-based; details: Human immunodeficiency virus 1, MT4, read-out: EC50 against T125A mutant virus, T125A mutant virus (HIV-1 NL-432 IN gene), MT-4 cells, MTT
Description: Persistently HIV (HTLV-IIIB strain) infected human T cell strain Molt-4 clone8 was cultured in RPMI-1640 medium supplemented with 10% fetal bovine serum and the supernatant was filtered, then the virus titer was measured and stored at −80° C. Polymorphic mutations in HIV-1-infected patients have been observed in amino acids 124 and 125 on the HIV-1 integrase (IN) gene. A point mutation was introduced on the amino acids 124 and/or 125 of IN gene of the HIV-1 NL-432 recombinant molecular clone to generate a mutant virus plasmid construct. These mutant virus plasmids were transfected into 293T cells, and after two days, the supernatant was filtered and then the virus titer was measured and stored at −80° C. Each anti-HIV active substance was diluted with culture medium described above to the designated concentration, which was dispensed into 96-well microtiter plate by 50 μL. Next, 100 μL of MT-4 cell suspension (2.5×10^4 cells) was dispensed into each well, then 50 μl of HIV-containing supernatant diluted with culture medium described above was added thereto (60 pfu (plaque forming unit)).
Cells were cultured at 37° C. in CO2 incubator for four days, then 30 μL of MTT (3-(4,5-dimethylthiazole-2-yl)-2,5-diphenyltetrazolyum bromide) reagent (5 mg/mL in PBS) was added to all wells followed by incubation for 1 hour. In this step, MTT was reduced to insoluble formazan in living cells. To elute generated formazan, 150 μL of the culture supernatant was removed from all wells, then 150 μL of cell lysis solution (10% Triton X-100 and 0.4% (v/v)-HCl containing isopropanol) was added thereto, followed by shaking with a plate mixer. The formazan was measured with micro plate reader at OD: 560 nm and 690 nm (reference wavelength) and the result was compared with the reference wells. EC50 means the compound concentration at which 50% of cytotoxicity caused by virus infection is inhibited.

Row | Compound | pEC50
1 | Cc1ccc(-c2c([C@H](OC(C)(C)C)C(=O)O)c(C)c3c4c2cc(C)n4C(C)CN3CCN(C)C)cc1 (mixture of isomers) [Compound I-144] | 7.43
2 | Cc1c([C@H](OC(C)(C)C)C(=O)O)c(-c2ccc(Cl)cc2)c2cc(C)n3c2c1N(S(=O)(=O)CCN(C)C)CC3 [Compound I-030] | 7.64
3 | COC(=O)N1CCn2c(C)cc3c(-c4ccc(Cl)cc4)c([C@H](OC(C)(C)C)C(=O)O)c(C)c1c32 [Compound I-031] | 7.96
4 | Cc1c([C@H](OC(C)(C)C)C(=O)O)c(-c2ccc(Cl)cc2)c2cc(C)n3c2c1N(S(=O)(=O)C1CC1)CC3 [Compound I-032] | 8.30
5 | [2H]C1([2H])N(S(C)(=O)=O)c2c(C)c([C@H](OC(C)(C)C)C(=O)O)c(-c3ccc(Cl)cc3)c3cc(C)n(c23)C1([2H])[2H] [Compound I-034] | 8.02
6 | Cc1c([C@H](OC(C)(C)C)C(=O)O)c(-c2ccc(Cl)cc2)c2cc(C)n3c2c1N(CC(F)F)CC3 [Compound I-035] | 7.85
7 | Cc1c([C@H](OC(C)(C)C)C(=O)O)c(-c2ccc(Cl)cc2)c2cc(C)n3c2c1N(S(C)(=O)=O)[C@@H](C)C3 [Compound I-036] | 8.19
8 | Cc1c([C@H](OC(C)(C)C)C(=O)O)c(-c2ccc(Cl)cc2)c2c(Cl)c(C)n3c2c1N(C)CC3 [Compound I-037] | 7.52
9 | CCNC(=O)N1CCn2c(C)cc3c(-c4ccc(Cl)cc4)c([C@H](OC(C)(C)C)C(=O)O)c(C)c1c32 [Compound I-038] | 7.35
10 | [2H]C1([2H])N(S(C)(=O)=O)c2c(C)c([C@H](OC(C)(C)C)C(=O)O)c(-c3ccc(Cl)cc3)c3c(F)c(C)n(c23)C1([2H])[2H] [Compound I-040] | 7.96
11 | Cc1c([C@H](OC(C)(C)C)C(=O)O)c(-c2ccc(Cl)cc2)c2cc(C)n3c2c1N(S(C)(=O)=O)[C@@H](CCN1CCOCC1)C3 [Compound I-045] | 7.24
12 | CC(=O)N1c2c(C)c([C@H](OC(C)(C)C)C(=O)O)c(-c3ccc(Cl)cc3)c3cc(C)n(c23)C[C@@H]1C [Compound I-046] | 7.74
13 | COCC(=O)N1CCn2c(C)cc3c(-c4ccc(C)cc4)c([C@H](OC(C)(C)C)C(=O)O)c(C)c1c32 [Compound I-047] | 7.34
14 | Cc1c([C@H](OC(C)(C)C)C(=O)O)c(-c2ccc(C(F)F)cc2)c2cc(C)n3c2c1N(C)CC3 [Compound I-049] | 7.66
15 | Cc1c([C@H](OC(C)(C)C)C(=O)O)c(-c2ccc(C(F)(F)F)cc2)c2cc(C)n3c2c1N(C)CC3 [Compound I-050] | 7.31
16 | Cc1c(F)cc(-c2c([C@H](OC(C)(C)C)C(=O)O)c(C)c3c4c2cc(C)n4CCN3C)cc1F [Compound I-051] | 7.66
17 | Cc1c([C@H](OC(C)(C)C)C(=O)O)c(-c2ccc(Cl)cc2)c2c(F)c(C)n3c2c1N(S(C)(=O)=O)CC3 [Compound I-052] | 8.05
18 | Cc1c([C@H](OC(C)(C)C)C(=O)O)c(-c2ccc(Cl)cc2)c2cc(C)n3c2c1N(C)[C@@H](C)C3 [Compound I-053] | 8.25
19 | Cc1c([C@H](OC(C)(C)C)C(=O)O)c(-c2ccc(Cl)cc2)c2cc(C)n3c2c1NC(=O)C3C (stereo partly drawn) [Compound I-054] | 7.32
20 | Cc1c([C@H](OC(C)(C)C)C(=O)O)c(-c2ccc(Cl)cc2)c2ccn3c2c1N(S(C)(=O)=O)CC3 [Compound I-056] | 7.23
21 | Cc1c([C@H](OC(C)(C)C)C(=O)O)c(-c2ccc(Cl)cc2)c2cc(C)n3c2c1N(C)[C@H](C)C3 [Compound I-057] | 8.57

Row | Compound | pEC50
22 | Cc1c([C@H](OC(C)(C)C)C(=O)O)c(-c2ccc(Cl)cc2)c2cc(C)n3c2c1N(S(C)(=O)=O)[C@H](C)C3 [Compound I-060] | 7.85
23 | CC(=O)N1c2c(C)c([C@H](OC(C)(C)C)C(=O)O)c(-c3ccc(Cl)cc3)c3cc(C)n(c23)C[C@H]1C [Compound I-061] | 8.02
24 | CCOC(=O)N1CCn2c(C)cc3c(-c4ccc(Cl)cc4)c([C@H](OC(C)(C)C)C(=O)O)c(C)c1c32 [Compound I-064] | 7.72
25 | COC(=O)N1c2c(C)c([C@H](OC(C)(C)C)C(=O)O)c(-c3ccc(Cl)cc3)c3cc(C)n(c23)C[C@@H]1C [Compound I-065] | 7.92
26 | [2H]C1([2H])N(C)c2c(C)c([C@H](OC(C)(C)C)C(=O)O)c(-c3ccc(Cl)cc3)c3cc(C)n(c23)C1([2H])[2H] [Compound I-066] | 8.40
27 | Cc1ccc(-c2c([C@H](OC(C)(C)C)C(=O)O)c(C)c3c4c2cc(Cl)n4CCN3C)cc1 [Compound I-068] | 8.17
28 | CCC(=O)N1c2c(C)c([C@H](OC(C)(C)C)C(=O)O)c(-c3ccc(Cl)cc3)c3cc(C)n(c23)C[C@@H]1C [Compound I-069] | 7.80
29 | Cc1c([C@H](OC(C)(C)C)C(=O)O)c(-c2ccc(Cl)cc2)c2cc(C)n3c2c1N(C(=O)C1CC1)[C@@H](C)C3 [Compound I-070] | 7.37
30 | Cc1c([C@H](OC(C)(C)C)C(=O)O)c(-c2ccc(Cl)cc2)c2cc(C)n3c2c1N(C)S(=O)(=O)CC3 [Compound I-071] | 7.35
31 | Cc1c([C@H](OC(C)(C)C)C(=O)O)c(-c2ccc(Cl)cc2)c2cc(C)n3c2c1N(C)S(=O)(=O)C3 [Compound I-072] | 7.89
32 | Cc1c([C@H](OC(C)(C)C)C(=O)O)c(-c2cc(F)c(Cl)c(F)c2)c2cc(C)n3c2c1N(C)CC3 [Compound I-073] | 7.41
33 | COc1ccc(-c2c([C@H](OC(C)(C)C)C(=O)O)c(C)c3c4c2cc(C)n4CCN3C)cc1 [Compound I-074] | 7.57
34 | Cc1c([C@H](OC(C)(C)C)C(=O)O)c(-c2ccc(Cl)cc2)c2cc(C)n3c2c1N(CCN(C)C)CC3 [Compound I-075] | 7.62
35 | COCCN1CCn2c(C)cc3c(-c4ccc(Cl)cc4)c([C@H](OC(C)(C)C)C(=O)O)c(C)c1c32 [Compound I-076] | 7.80
36 | Cc1c([C@H](OC(C)(C)C)C(=O)O)c(-c2ccc(Cl)cc2)c2cc(C)n3c2c1N(S(C)(=O)=O)CCC3 [Compound I-078] | 7.68
37 | Cc1c([C@H](OC(C)(C)C)C(=O)O)c(-c2ccc(Cl)cc2)c2cc(C)n3c2c1N(C)CCC3 [Compound I-079] | 7.77
38 | Cc1c([C@H](OC(C)(C)C)C(=O)O)c(-c2ccc(Cl)cc2)c2c(C)c(C)n3c2c1N(C)CC3 [Compound I-080] | 7.48
39 | Cc1ccc(-c2c([C@H](OC(C)(C)C)C(=O)O)c(C)c3c4c2cc(Br)n4CCN3C)cc1 [Compound I-081] | 8.02
40 | CCc1ccc(-c2c([C@H](OC(C)(C)C)C(=O)O)c(C)c3c4c2cc(C)n4CCN3C)cc1 [Compound I-082] | 8.21
41 | Cc1c([C@H](OC(C)(C)C)C(=O)O)c(-c2ccc(Cl)cc2)c2cc(C)n3c2c1N(CC1CC1)[C@@H](C)C3 [Compound I-083] | 7.82
42 | COC[C@H]1Cn2c(C)cc3c(-c4ccc(Cl)cc4)c([C@H](OC(C)(C)C)C(=O)O)c(C)c(c32)N1S(C)(=O)=O [Compound I-086] | 7.96

same assay, conditions: read-out: EC50 against T125A mutant virus; T125A mutant virus (HIV-1 NL-432 IN gene), MT-4 cells, MTT

Row | Compound | pEC50
43 | Cc1c([C@H](OC(C)(C)C)C(=O)O)c(-c2ccc(Cl)cc2)c2cc(C)n3c2c1NC(=O)C3C (stereo partly drawn) [Compound I-055] | 7.62
44 | Cc1c([C@H](OC(C)(C)C)C(=O)O)c(-c2ccc(Cl)cc2)c2cc(C)n3c2c1N(S(C)(=O)=O)CC3C (stereo partly drawn) [Compound I-062] | 7.47
45 | Cc1c([C@H](OC(C)(C)C)C(=O)O)c(-c2ccc(Cl)cc2)c2cc(C)n3c2c1N(S(C)(=O)=O)CC3C (stereo partly drawn) [Compound I-063] | 8.35
